The term IC50 denotes the concentration that inhibits the measured activity by half.

SMILES strings stand for the structures. Some results are limits rather than exact numbers.

Chain of baculovirus-expressed ALK (Q9UM73 19-1620): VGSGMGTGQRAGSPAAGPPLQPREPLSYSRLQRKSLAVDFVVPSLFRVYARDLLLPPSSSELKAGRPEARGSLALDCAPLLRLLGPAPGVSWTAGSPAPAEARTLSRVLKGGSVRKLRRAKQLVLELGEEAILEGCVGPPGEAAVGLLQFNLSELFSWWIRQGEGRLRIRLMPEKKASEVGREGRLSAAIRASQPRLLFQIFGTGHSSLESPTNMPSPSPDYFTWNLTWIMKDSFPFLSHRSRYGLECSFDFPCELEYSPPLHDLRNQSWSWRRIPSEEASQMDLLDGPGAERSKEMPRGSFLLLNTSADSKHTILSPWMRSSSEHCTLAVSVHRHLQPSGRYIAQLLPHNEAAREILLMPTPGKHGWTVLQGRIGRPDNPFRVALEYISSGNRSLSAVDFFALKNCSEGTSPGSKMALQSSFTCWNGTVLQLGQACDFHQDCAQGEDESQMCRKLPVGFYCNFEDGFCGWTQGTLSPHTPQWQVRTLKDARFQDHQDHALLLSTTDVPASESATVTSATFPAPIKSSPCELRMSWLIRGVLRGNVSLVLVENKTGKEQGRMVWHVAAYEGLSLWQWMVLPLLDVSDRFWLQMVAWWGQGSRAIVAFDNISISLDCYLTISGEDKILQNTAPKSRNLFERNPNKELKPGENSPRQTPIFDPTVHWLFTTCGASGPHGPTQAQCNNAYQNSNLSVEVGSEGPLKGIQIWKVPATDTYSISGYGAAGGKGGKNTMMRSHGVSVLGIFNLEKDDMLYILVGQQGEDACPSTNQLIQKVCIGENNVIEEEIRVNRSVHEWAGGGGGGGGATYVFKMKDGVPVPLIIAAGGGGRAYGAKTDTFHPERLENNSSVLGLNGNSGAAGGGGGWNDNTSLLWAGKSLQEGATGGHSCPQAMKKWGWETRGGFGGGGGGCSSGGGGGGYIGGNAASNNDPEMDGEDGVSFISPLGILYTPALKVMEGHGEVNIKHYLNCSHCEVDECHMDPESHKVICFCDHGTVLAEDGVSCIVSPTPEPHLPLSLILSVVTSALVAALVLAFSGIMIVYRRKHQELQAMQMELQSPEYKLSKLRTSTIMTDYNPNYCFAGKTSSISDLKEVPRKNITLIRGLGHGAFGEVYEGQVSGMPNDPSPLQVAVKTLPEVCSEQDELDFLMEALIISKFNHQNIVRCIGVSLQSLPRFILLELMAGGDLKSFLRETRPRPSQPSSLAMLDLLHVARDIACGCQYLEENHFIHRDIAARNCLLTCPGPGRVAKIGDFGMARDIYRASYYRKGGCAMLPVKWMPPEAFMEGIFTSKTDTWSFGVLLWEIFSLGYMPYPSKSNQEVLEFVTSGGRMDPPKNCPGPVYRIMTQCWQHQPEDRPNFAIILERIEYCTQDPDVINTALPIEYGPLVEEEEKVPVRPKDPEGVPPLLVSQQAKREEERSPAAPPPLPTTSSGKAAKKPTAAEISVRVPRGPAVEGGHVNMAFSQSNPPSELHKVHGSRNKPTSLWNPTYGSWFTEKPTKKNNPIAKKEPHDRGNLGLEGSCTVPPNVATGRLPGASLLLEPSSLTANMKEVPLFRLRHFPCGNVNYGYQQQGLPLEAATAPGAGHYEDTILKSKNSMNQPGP

The assay addresses baculovirus-expressed ALK (Homo sapiens, UniProt Q9UM73). Description: ALK Kinase Assay (ELISA/TRF, PLC-γ substrate). Further: 1 µM ATP (Km level). As to conditions: read-out: ALK Kinase Inhibition (IC50). It is filed as biochemical. As to the method: Example compounds were tested for their ability to inhibit the kinase activity of baculovirus-expressed ALK using a modification of the ELISA protocol reported for trkA in Angeles, T. S. et al., Anal. Biochem. 1996, 236, 49-55, which is incorporated herein by reference in its entirety. Phosphorylation of the substrate, phospholipase C-gamma (PLC-γ) generated as a fusion protein with glutathione S-transferase (GST) as reported in Rotin, D. et al., EMBO J. 1992, 11, 559-567, which is incorporated herein by reference in its entirety, was detected with a europium-labeled anti-phosphotyrosine antibody and measured by time-resolved fluorescence (TRF). Briefly, each 96-well plate was coated with 100 μL/well of 10 μg/mL substrate (phospholipase C-γ) in Tris-buffered saline (TBS). […] The reaction was initiated by adding enzyme (30 ng/ml ALK) and was allowed to proceed at 37° C. for 15 minutes. Detection of the phosphorylated product was performed by adding 100 μl/well of Eu-N1 labeled PT66 antibody (Perkin Elmer # AD0041). Incubation at 37° C. then proceeded for one (1) hour, followed by addition of 100 μL enhancement solution (Wallac #1244-105). The plate was gently agitated and after thirty minutes, the fluorescence of the resulting solution was measured using the EnVision 2100 (or 2102) multilabel plate reader (Perkin Elmer).
Data analysis was performed using ActivityBase (IDBS, Guilford, UK). IC50 values were calculated by plotting percent inhibition versus log10 of the concentration of compound and fitting to the nonlinear regression sigmoidal dose-response (variable slope) equation in XLFit (IDBS, Guilford, UK).
For orientation: An ELISA detects its analyte on a solid surface through an enzyme-linked reagent.
As to `O=C(c1cccc(-c2cnc3c(c2)N(Cc2cc(Cl)ccc2C(F)(F)F)CCN3)c1)N1CCC(Cc2ccccc2)CC1` [Example 316, (4-Benzylpiperidin-1-yl)-(3-{1-[5-Chloro-2-(trifluoromethyl)benzyl]-1,2,3,4-tetrahydropyrido[2,3-b]pyrazin-7-yl}phenyl)methanone], the IC50 fell in the range of 100 to 1000 nM.
As for `O=C(c1cccc(-c2cnc3c(c2)N(Cc2cc(Cl)ccc2C(F)(F)F)CCN3)c1)N1CCN(c2ccc(Cl)c(Cl)c2)CC1` [Example 317, (3-{1-[5-Chloro-2-(trifluoromethyl)benzyl]-1,2,3,4-tetrahydropyrido[2,3-b]pyrazin-7-yl}phenyl)-[4-(3,4-dichlorophenyl)piperazin-1-yl]methanone], the figure is 100 to 1000 nM.
The figure for `O=C(c1cccc(-c2cnc3c(c2)N(Cc2cc(Cl)ccc2C(F)(F)F)CCN3)c1)N1CCC2(CC1)C(=O)NCN2c1ccccc1` [Example 318, 8-(3-{1-[5-Chloro-2-(trifluoromethyl)benzyl]-1,2,3,4-tetrahydropyrido[2,3-b]pyrazin-7-yl}benzoyl)-1-phenyl-1,3,8-triaza-spiro[4.5]decan-4-one] is 100 to 1000 nM.
`O=C(c1cccc(-c2cnc3c(c2)N(Cc2cc(Cl)ccc2C(F)(F)F)CCN3)c1)N1CCN(c2ccccc2C(F)(F)F)CC1` [Example 319, (3-{1-[5-Chloro-2-(trifluoromethyl)benzyl]-1,2,3,4-tetrahydropyrido[2,3-b]pyrazin-7-yl}phenyl)-{4-[2-(trifluoromethyl)phenyl]piperazin-1-yl}methanone]: the 50% inhibitory concentration (IC50) was in the range of 100 to 1000 nM.
As to `O=C(c1cccc(-c2cnc3c(c2)N(Cc2cc(Cl)ccc2C(F)(F)F)CCN3)c1)N1CCN(c2ncnc3ccsc23)CC1` [Example 320, (3-{1-[5-Chloro-2-(trifluoromethyl)benzyl]-1,2,3,4-tetrahydropyrido[2,3-b]pyrazin-7-yl}phenyl)-(4-thieno[3,2-d]pyrimidin-4-ylpiperazin-1-yl)methanone], the concentration for half-maximal inhibition (IC50) was in the range of 100 to 1000 nM.
The figure for `O=C(c1cccc(-c2cnc3c(c2)N(Cc2cc(Cl)ccc2C(F)(F)F)CCN3)c1)N1CCN(Cc2ccc(Cl)cc2)CC1` [Example 321, [4-(4-Chlorobenzyl)piperazin-1-yl]-(3-{1-[5-Chloro-2-(trifluoromethyl)benzyl]-1,2,3,4-tetrahydropyrido[2,3-b]pyrazin-7-yl}phenyl)methanone] is 100 to 1000 nM; for `COc1ccc(CN2CCN(C(=O)c3cccc(-c4cnc5c(c4)N(Cc4cc(Cl)ccc4C(F)(F)F)CCN5)c3)CC2)cc1` [Example 322, (3-{1-[5-Chloro-2-(trifluoromethyl)benzyl]-1,2,3,4-tetrahydropyrido[2,3-b]pyrazin-7-yl}phenyl)-[4-(4-methoxybenzyl)piperazin-1-yl]methanone] it is 100 to 1000 nM; for `O=C(c1ccccc1)N1CCN(C(=O)c2cccc(-c3cnc4c(c3)N(Cc3cc(Cl)ccc3C(F)(F)F)CCN4)c2)CC1` [Example 323, (4-Benzoylpiperazin-1-yl)-(3-{1-[5-Chloro-2-(trifluoromethyl)benzyl]-1,2,3,4-tetrahydropyrido[2,3-b]pyrazin-7-yl}phenyl)methanone] it is 100 to 1000 nM.
On to `O=C(c1cccc(-c2cnc3c(c2)N(Cc2cc(Cl)ccc2C(F)(F)F)CCN3)c1)N1CCN(c2nccc3occc23)CC1` [Example 324, (3-{1-[5-Chloro-2-(trifluoromethyl)benzyl]-1,2,3,4-tetrahydropyrido[2,3-b]pyrazin-7-yl}phenyl)-(4-furo[3,2-c]pyridin-4-ylpiperazin-1-yl)methanone], for which the 50% inhibitory concentration (IC50) was in the range of 100 to 1000 nM.
`O=C(c1cccc(-c2cnc3c(c2)N(Cc2cc(Cl)ccc2C(F)(F)F)CCN3)c1)N1CCC(c2noc3cc(F)ccc23)CC1` [Example 325, (3-{1-[5-Chloro-2-(trifluoromethyl)benzyl]-1,2,3,4-tetrahydropyrido[2,3-b]pyrazin-7-yl}phenyl)-[4-(6-fluorobenzo[d]isoxazol-3-yl)piperidin-1-yl]methanone]: the IC50 was 100 to 1000 nM.
For the compound `CCOC(=O)N1CCC(NC(=O)c2cccc(-c3cnc4c(c3)N(Cc3cc(Cl)ccc3C(F)(F)F)CCN4)c2)CC1` [Example 326, 4-(3-{1-[5-Chloro-2-(trifluoromethyl)benzyl]-1,2,3,4-tetrahydropyrido[2,3-b]pyrazin-7-yl}benzoylamino)piperidine-1-carboxylic acid ethyl ester], the half-inhibitory concentration (IC50) lay in the range of 100 to 1000 nM.
As for `O=C(NC1CCN(Cc2ccccc2)CC1)c1cccc(-c2cnc3c(c2)N(Cc2cc(Cl)ccc2C(F)(F)F)CCN3)c1` [Example 327, N-(1-Benzylpiperidin-4-yl)-3-{1-[5-chloro-2-(trifluoromethyl)benzyl]-1,2,3,4-tetrahydropyrido[2,3-b]pyrazin-7-yl}benzamide], the figure is less than 100 nM; as for `O=C(NCC(c1ccccc1)c1ccccc1)c1cccc(-c2cnc3c(c2)N(Cc2cc(Cl)ccc2C(F)(F)F)CCN3)c1` [Example 328, 3-{1-[5-Chloro-2-(trifluoromethyl)benzyl]-1,2,3,4-tetrahydropyrido[2,3-b]pyrazin-7-yl}-N-(2,2-diphenylethyl)benzamide], 100 to 1000 nM.
As for `CN1CCC(NC(=O)c2cccc(-c3cnc4c(c3)N(Cc3cc(Cl)ccc3C(F)(F)F)CCN4)c2)CC1` [Example 329, 3-{1-[5-Chloro-2-(trifluoromethyl)benzyl]-1,2,3,4-tetrahydropyrido[2,3-b]pyrazin-7-yl}-N-(1-methylpiperidin-4-yl)benzamide], the figure is less than 100 nM; as for `O=C(c1cccc(-c2cnc3c(c2)N(Cc2cc(Cl)ccc2C(F)(F)F)CCN3)c1)N1CCN(CCc2ccccn2)CC1` [Example 330, (3-{1-[5-Chloro-2-(trifluoromethyl)benzyl]-1,2,3,4-tetrahydropyrido[2,3-b]pyrazin-7-yl}phenyl)-[4-(2-pyridin-2-yl-ethyl)piperazin-1-yl]methanone], 100 to 1000 nM.
Take `O=C(NCc1ccc(OC(F)(F)F)cc1)c1cccc(-c2cnc3c(c2)N(Cc2cc(Cl)ccc2C(F)(F)F)CCN3)c1` [Example 331, 3-{1-[5-Chloro-2-(trifluoromethyl)benzyl]-1,2,3,4-tetrahydropyrido[2,3-b]pyrazin-7-yl}-N-[4-(trifluoromethoxy)benzyl]benzamide]: the half-inhibitory concentration (IC50) was 1000 to 10000 nM.
The figure for `O=C(NCc1cc(C(F)(F)F)cc(C(F)(F)F)c1)c1cccc(-c2cnc3c(c2)N(Cc2cc(Cl)ccc2C(F)(F)F)CCN3)c1` [Example 332, N-[3,5-Bis(trifluoromethyl)benzyl]-3-{1-[5-chloro-2-(trifluoromethyl)benzyl]-1,2,3,4-tetrahydropyrido[2,3-b]pyrazin-7-yl}benzamide] is 100 to 1000 nM; for `O=C(NC(c1ccccc1)c1ccccc1)c1cccc(-c2cnc3c(c2)N(Cc2cc(Cl)ccc2C(F)(F)F)CCN3)c1` [Example 333, N-Benzhydryl-3-{1-[5-chloro-2-(trifluoromethyl)benzyl]-1,2,3,4-tetrahydropyrido[2,3-b]pyrazin-7-yl}benzamide] it is 100 to 1000 nM.
As for `O=C(NCc1ccncc1)c1cccc(-c2cnc3c(c2)N(Cc2cc(Cl)ccc2C(F)(F)F)CCN3)c1` [Example 334, 3-{1-[5-Chloro-2-(trifluoromethyl)benzyl]-1,2,3,4-tetrahydropyrido[2,3-b]pyrazin-7-yl}-N-pyridin-4-ylmethylbenzamide], the figure is less than 100 nM.
As for `O=C(NCc1cccnc1)c1cccc(-c2cnc3c(c2)N(Cc2cc(Cl)ccc2C(F)(F)F)CCN3)c1` [Example 335, 3-{1-[5-Chloro-2-(trifluoromethyl)benzyl]-1,2,3,4-tetrahydropyrido[2,3-b]pyrazin-7-yl}-N-pyridin-3-ylmethylbenzamide], the figure is 100 to 1000 nM; as for `CC(C)NC(=O)CN1CCN(C(=O)c2cccc(-c3cnc4c(c3)N(Cc3cc(Cl)ccc3C(F)(F)F)CCN4)c2)CC1` [Example 336, 2-[4-(3-{1-[5-Chloro-2-(trifluoromethyl)benzyl]-1,2,3,4-tetrahydropyrido[2,3-b]pyrazin-7-yl}benzoyl)piperazin-1-yl]-N-isopropylacetamide], 100 to 1000 nM.
With `Cc1cc(N2CCN(C(=O)c3cccc(-c4cnc5c(c4)N(Cc4cc(Cl)ccc4C(F)(F)F)CCN5)c3)CC2)c2ccccc2n1` [Example 337, (3-{1-[5-Chloro-2-(trifluoromethyl)benzyl]-1,2,3,4-tetrahydropyrido[2,3-b]pyrazin-7-yl}phenyl)-[4-(2-methylquinolin-4-yl)piperazin-1-yl]methanone], the IC50 lay in the range of 100 to 1000 nM.
The figure for `NS(=O)(=O)c1ccc(CCNC(=O)c2cccc(-c3cnc4c(c3)N(Cc3cc(Cl)ccc3C(F)(F)F)CCN4)c2)cc1` [Example 338, 3-{1-[5-Chloro-2-(trifluoromethyl)benzyl]-1,2,3,4-tetrahydropyrido[2,3-b]pyrazin-7-yl}-N-[2-(4-sulfamoylphenyl)ethyl]benzamide] is 100 to 1000 nM; for `O=C(c1cccc(-c2cnc3c(c2)N(Cc2cc(Cl)ccc2C(F)(F)F)CCN3)c1)N1CCN(c2cnccn2)CC1` [Example 339, (3-{1-[5-Chloro-2-(trifluoromethyl)benzyl]-1,2,3,4-tetrahydropyrido[2,3-b]pyrazin-7-yl}phenyl)-(2,3,5,6-tetrahydro-[1,2′]bipyrazinyl-4-yl)methanone] it is 100 to 1000 nM.

The values above are taken from patent publication US7601716B2, “Pyridopyrazines and derivatives thereof as ALK and c-Met inhibitors” (Cephalon, Inc., priority 2006, dated 2009).
